# Measurements published in article PMC11106165, “Repurposing the KCa3.1 Blocker Senicapoc for Ischemic Stroke” (Translational Stroke Research, 2023).
# Legend:
# human tPA = target: T1, human tPA (Homo sapiens, UniProt P00750); experiment: Chromogenic tPA activity assay; format: biochemical; conditions: 0.5 μM and 5 μM, 30-min assay, PBS with 10% human serum
# T1 construct: purchased Abcam ab108905
# From the text: The commercially available tPA Activity Assay Kit (Abcam, ab108905) was used to assess whether senicapoc and TRAM-34 affect the ability of human tPA to cleave its substrate plasminogen similar to protocols published by Lapchak and Boitano [38] and Lapchak et al.. Reactions were run in optically clear flat-bottom 96-well plates (Corning, Catalog #3904). Human plasminogen activator inhibitor-1 (PAI-1; Sigma-Aldrich CC4075) was used as a positive control. Human plasminogen, the chromogenic plasmin substrate, and human tPA were included in the tPA Activity Assay Kit. […] The reactions were pre-incubated at 37 °C for 5 min prior to the addition of the chromogenic plasmin substrate and subsequently placed in a heated SpectraMax M5 spectrophotometer. Absorbances at 405 nm were measured every 30 s for 30 min.
# [1] = test system: patients with sickle cell disease and healthy volunteers; conditions: cited from earlier work
# [2] = design: method as in PMID 31019997; conditions: mice; cited from earlier work
# [3] = test system: male C57BL/6 J mice, tMCAO; experiment: tMCAO (60 min) in mice, infarct area by T2-weighted MRI; format: in vivo, mouse
# Experimental: Reversible focal cerebral ischemia was induced by occlusion of the left middle cerebral artery (MCA) according to the classic filament method of Zea Longa as previously described for mice by our laboratory. All surgeries were performed in the MicroSurgery Core of the UC Davis School of Medicine by a microsurgeon with 20 years of surgical experience using a silicone rubber-coated nylon monofilament with a tip diameter of 0.21 ± 0.02 mm (No. 702112PK5Re, Doccol Corporation). Anesthesia was induced with 5% isoflurane and then maintained with 0.5 to 1.5% isoflurane in medical pure oxygen administered through a facemask. To assure consistent and continuous reduction of cerebral blood flow (CBF), a laser Doppler (Moor Instruments: MOORVMS-LDF) probe adapter was affixed to the surface of the skull over the brain area supplied by the MCA using dental cement. The probe remained in place throughout the MCAO surgery and CBF was measured continuously to confirm occlusion and later establishment of reperfusion. Animals were kept under anesthesia and body temperature was monitored throughout the whole procedure and maintained at > 36.5 °C using a feedback-controlled heating pad. Following 60 min of MCAO, the filament was withdrawn to allow reperfusion. Blood flow measurements were continued for another 15 min before removing the adapter and the laser Doppler probe. Animals received subcutaneous Buprenex at 0.02 mg/kg every 12 h to limit post-surgical pain for 24 h after surgery. The survival rate was 93%. […] In this study, out of the animals surviving to day 8 (45 out of 48), two animals were excluded because they lacked an obvious neurological deficit score at 12 h. Animals that met inclusion criteria were assigned to the 3 groups (low- and high-dose senicapoc or vehicle) based on a computer-generated randomization scheme. […]
# Infarct volume was evaluated with T2-weighted MRI imaging in the Nuclear Magnetic Resonance Facility at UC Davis. […] The multi-slice multi-echo (sequence (TE:56 ms; TR: 1681.2 ms) was used to acquire images of 7 coronal sections with 1-mm thickness from the junction of olfactory bulb and cortex. The infarct area was analyzed with Adobe Photoshop Elements by an investigator blinded to the treatments. On day 3, infarct area was corrected for edema and calculated with the equation: (L − N)/L × 100%; L, left (contralateral) hemisphere area; N, non-infarcted tissue area in the ipsilateral hemisphere. By day 8 post tMCAO, there typically is either only minimal or no associated cerebral edema, so no correction for edema is required and the percentage of infarcted area was calculated with the equation: (Infarct Area/Ipsilateral Hemisphere Area) × 100%.
# [4] = test system: MMC (mouse microglial cell line); experiment: Fluo-4 calcium imaging of ATP-induced Ca2+ signaling in MMC; format: cell-based; conditions: 100 µM ATP, Fluo-4 ΔF/F
# Experimental: Real-time changes of [Ca^2+]i in MMCs seeded on glass coverslips at a density of 10,000 cells/cm^2 were measured using the time-lapse imaging module on a BZ-X780 fluorescence microscopy (Keyence LLC, Campbell, CA) and the fluorescent calcium indicator Fluo-4/AM from Invitrogen (ThermoFisher, Waltham, MA) as previously described. For testing the effect of KCa3.1 inhibition on intracellular calcium changes, cells were pre-incubated with senicapoc during the de-esterification step and throughout the course of the experiment. All fluorescence measurements were made at 2-s intervals at room temperature from subconfluent areas of the coverslips to ensure that only individual microglia were measured. Image data were analyzed off-line with Fiji using the ROI-1 click tool and the change in microglial [Ca^2+]i was represented as ΔF/F (change in fluorescence after baseline-subtraction).
# T1 sequence (P00750 36-562): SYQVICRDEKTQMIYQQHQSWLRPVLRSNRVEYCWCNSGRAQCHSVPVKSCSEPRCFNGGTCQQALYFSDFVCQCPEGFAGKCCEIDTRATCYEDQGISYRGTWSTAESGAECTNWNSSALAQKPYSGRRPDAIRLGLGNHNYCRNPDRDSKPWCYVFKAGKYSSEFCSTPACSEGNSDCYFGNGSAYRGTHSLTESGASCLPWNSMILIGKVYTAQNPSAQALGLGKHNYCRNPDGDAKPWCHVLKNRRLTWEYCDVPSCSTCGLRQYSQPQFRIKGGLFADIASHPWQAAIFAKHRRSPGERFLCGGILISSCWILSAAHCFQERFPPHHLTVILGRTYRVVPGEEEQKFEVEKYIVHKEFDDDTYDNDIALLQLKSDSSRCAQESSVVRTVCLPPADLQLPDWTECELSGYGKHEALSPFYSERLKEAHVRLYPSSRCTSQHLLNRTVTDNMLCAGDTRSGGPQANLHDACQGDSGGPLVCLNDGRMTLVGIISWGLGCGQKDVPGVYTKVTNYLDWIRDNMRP
smiles,measurement,setting,value
NC(=O)C(c1ccccc1)(c1ccc(F)cc1)c1ccc(F)cc1 [senicapoc],effect on tPA activity (absorbance at 405 nm),human tPA,no effect
same,"hemolysis, hematocrit and hemoglobin levels in phase II study","[1]; 10 mg/day, double-blind placebo-controlled",reduced hemolysis and significantly increased hematocrit and hemoglobin levels
same,phase III endpoint: reduction in number of vaso-occlusive pain crises,[1],did not meet the set clinical endpoint
same,tolerability in dose escalating phase I clinical trials,[1]; healthy volunteers and patients with sickle cell disease,well tolerated
same,half-life,[2],1 h
same,T2-weighted lesion area,"[3]; 10 mg/kg IP twice daily started 12 h after reperfusion, day 8, n = 7, vehicle 20.5 ± 1.3%",11.6 ± 1.1%
same,T2-weighted lesion area,"[3]; 40 mg/kg IP twice daily started 12 h after reperfusion, day 8, n = 7, vehicle 20.5 ± 1.3%",9.3 ± 1.3%
same,T2-weighted lesion area,"[3]; 40 mg/kg started 3 h after tMCAO, day 3, n = 8, P = 0.199, vehicle 21.4 ± 2.3%",16.1 ± 3.1%
same,T2-weighted lesion area,"[3]; 40 mg/kg started 3 h after tMCAO, day 8, n = 8, P = 0.0318, vehicle 16.6 ± 1.0%",11.7 ± 1.8%
same,Ca2+ influx induced by ATP,[4],concentration-dependently reduced
